From US20240060146A1, “CHEMICAL SUBSTANCE EVALUATION SYSTEM USING MULTICOLOR LIGHT-EMITTING CELLS” (TOHOKU UNIVERSITY, priority 2020, published 2024)

What was measured:
Assay type in all cases: cell-based
2H4 cells [1] = experiment: IL-2 Luc LTT: evaluation of chemical substance in 2H4 cells; conditions: 1 h chemical, then 25 nM PMA and 1 μM ionomycin 24 h, class from Min % suppression (nIL2LA) and Min Inh-GAPLA
Experimental: (§1) 2H4 cells were established from Jurkat cells according to the method described in PTL 1. First, for the preparation of 2H4 cells, a plasmid having SLG introduced downstream of the IL-2 promoter, a plasmid having SLR introduced downstream of the G3PDH promoter, and a plasmid having SLO introduced downstream of the INF-γ promoter were prepared as internal standards. These plasmids contained a resistance gene for hygromycin B, puromycin, and neomycin downstream of SLG, SLR, and SLO, respectively. The conditions for drug selection after transfection of the host Jurkat cells were as follows: in the primary selection, the cells were cultured for 1 week in the presence of a drug. In the secondary selection culture, the cells that survived in the primary selection culture were seeded in a 96-well plate at 1 cell/well or 200 cells/well, and cultured for 2 weeks under the same drug conditions. After the secondary selection culture, the cells were subjected to clone selection from the two points of signal intensity and signal induction by drug treatment. The G3PDH promoter SLR was first introduced to establish monochromatic stable cell line Jurkat: G3PDH-SLR #14D1 cells. These cells were used as the parent cell line to introduce the INF-γ promoter SLO, thereby establishing bichromatic stable cell line Jurkat: INFγ-SLO/G3PDH-SLR #2B12 cells. Subsequently, the obtained cells were used as a parent cell line to introduce the IL-2 promoter SLG, thereby establishing trichromatic stable cell line Jurkat IL-2-SLG/INFγ-SLO/G3PDH-SLR #2H4 cells.
The chemical substances listed in Table 1 were evaluated using 2H4 cells. 2H4 cells were seeded in a 96-well plate at 1×10^4/well and treated with each chemical substance for 1 hour, followed by incubating the cells with 25 nM PMA and 1 μM ionomycin for 24 hours. After 24 hours from the treatment with PMA and ionomycin, Tripluck Assay Reagent (manufactured by Toyobo Co., Ltd.) was added, and the amount of luminescence was measured with a Phelios microplate luminometer (manufactured by Atto Corporation). For control, 2H4 cells untreated with a chemical substance were also examined in the same manner. The amount of luminescence of SLG luciferase activity (IL2LA), SLR luciferase activity (GAPLA), and SLO luciferase activity (IFNLA) was measured, and IL-2LA and IFNLA were each normalized by GAPLA and determined to be nIL2LA and nIFNLA, respectively. Thereafter, for the concentration of each chemical substance, “% suppression” and “Inh-GAPLA” were determined according to the following formulas (1) and (2), and the chemical substances were evaluated by using their minimum value (Min % suppression, Min Inh-GAPLA).
In the evaluation, for control, PMA/ionomycin-treated 2H4 cells and PMA/ionomycin-untreated 2H4 cells were also measured for nIL2LA.
(§2) % suppression={(nIL2LA in 2H4 cells untreated with a chemical substance)−(nIL2LA in 2H4 cells treated with a chemical substance)}×100/(nIL2LA in 2H4 cells untreated with a chemical substance) ---(1) Inh-GAPLA=(GAPLA in 2H4 cells treated with a chemical substance)/(GAPLA in 2H4 cells untreated with a chemical substance) ---(2)

2H4 cells [2] = experiment: Evaluation of combination of IL-2 Luc LTT and IL-2 Luc assay; design: key: Positive (Pos): If the result is either LCT in the IL-2 Luc LTT or S in the IL-2 Luc assay, or both, the chemical substance is determined to be an immunosuppressive substance.; Negative (Neg): In the case other than the above, the chemical substance is determined to be a non-immunosuppressive substance; conditions: LCT in IL-2 Luc LTT or S in IL-2 Luc assay = Pos
Experimental: Positive (Pos): If the result is either LCT in the IL-2 Luc LTT or S in the IL-2 Luc assay, or both, the chemical substance is determined to be an immunosuppressive substance. Negative (Neg): In the case other than the above, the chemical substance is determined to be a non-immunosuppressive substance.

2H4 cells [3] = experiment: IL-2 Luc assay: evaluation of chemical substance in 2H4 cells; conditions: 1 h chemical, then PMA/ionomycin, luminescence after six hours, class from Min % suppression of nIL2LA
Experimental: as §1, §2
The chemical substances listed in Table 1 were evaluated using 2H4 cells. 2H4 cells were seeded in a 96-well plate at 2×10^5 cells/50 μl/well and treated with each chemical substance for 1 hour, followed by incubating the cells with 25 nM PMA and 1 µM ionomycin […]. After six hours from the treatment with PMA and ionomycin, Tripluc: Assay Reagent (manufactured by Toyobo Co., Ltd.) was added, and the amount of luminescence was measured with a Phelios microplate luminometer (manufactured by Atto Corporation). For control, 2H4 cells untreated with a chemical substance were also examined in the same manner. The amount of luminescence of SLG luciferase activity (IL2LA), SLR luciferase activity (GAPLA), and SLO luciferase activity (IFNLA) was measured, and IL-2LA and IFNLA were each normalized by GAPLA and determined to be nIL2LA and nIFNLA, respectively. Thereafter, for the concentration of each chemical substance, the value of suppression was calculated according to formula (1) above, and the chemical substances were evaluated by using their minimum value (Min suppression).

Compound | IL-2 Luc LTT (2H4 cells [1]) | Evaluation of Combination (2H4 cells [2]) | IL-2 Luc Assay (2H4 cells [3])
COc1cc2c(c(OC)c1OC)-c1ccc(OC)c(=O)cc1[C@@H](NC(C)=O)CC2 [Colchicine] | LCT (Min % suppression ≤−35 and Min Inh-GAPLA <0.7: Leukocyte toxic (denoted as “LCT”; determined to have cell growth inhibition action and/or metabolic activity inhibition action)) | Pos | S (Min %; suppression ≥35: Suppression (denoted as “S”; determined to have immunosuppressive action))
Bleomycin sulfate | LCT (Min % suppression ≤−35 and Min Inh-GAPLA <0.7: Leukocyte toxic (denoted as “LCT”; determined to have cell growth inhibition action and/or metabolic activity inhibition action)) | Pos | N (−35<Min % suppression <35: No Effect (denoted as “N”; determined to not affect immunity))
Cn1cnc([N+](=O)[O-])c1Sc1ncnc2nc[nH]c12 [Azathioprine (AZ), Azathioprine] | NLCT | Pos | S (Min %; suppression ≥35: Suppression (denoted as “S”; determined to have immunosuppressive action))

The next lines start with results.

IL-2 Luc LTT (2H4 cells [1]) | Evaluation of Combination (2H4 cells [2]) | Compound | IL-2 Luc Assay (2H4 cells [3])
NLCT | Pos | CN(C)CCOC(c1ccccc1)c1ccccc1 [Diphenhydramine] | S (Min %; suppression ≥35: Suppression (denoted as “S”; determined to have immunosuppressive action))
NLCT | Neg | CN(Cc1cnc2nc(N)nc(N)c2n1)c1ccc(C(=O)N[C@@H](CCC(=O)O)C(=O)O)cc1 [Methotrexate (MTX), Methotrexate] | N (−35<Min % suppression <35: No Effect (denoted as “N”; determined to not affect immunity))
NLCT | Neg | C[C@@H]1C[C@H]2[C@@H]3CCC4=CC(=O)C=C[C@]4(C)[C@@]3(F)[C@@H](O)C[C@]2(C)[C@@]1(O)C(=O)CO [Dexamethasone (Dex), Dexamethasone] | N (−35<Min % suppression <35: No Effect (denoted as “N”; determined to not affect immunity))
